In article PMC9602792, “Preclinical evaluation of the epithelial sodium channel inhibitor AZD5634 and implications on human translation” (American Journal of Physiology - Lung Cellular and …, 2022):

Target: T1, rat ENaC (Rattus norvegicus, UniProt P37089+P37090+P37091)
T1 construct: from tissue; host or cells: kidney distal tubule of anesthetized female Wistar rats, in vivo
T1 sequence (P37089 1-698): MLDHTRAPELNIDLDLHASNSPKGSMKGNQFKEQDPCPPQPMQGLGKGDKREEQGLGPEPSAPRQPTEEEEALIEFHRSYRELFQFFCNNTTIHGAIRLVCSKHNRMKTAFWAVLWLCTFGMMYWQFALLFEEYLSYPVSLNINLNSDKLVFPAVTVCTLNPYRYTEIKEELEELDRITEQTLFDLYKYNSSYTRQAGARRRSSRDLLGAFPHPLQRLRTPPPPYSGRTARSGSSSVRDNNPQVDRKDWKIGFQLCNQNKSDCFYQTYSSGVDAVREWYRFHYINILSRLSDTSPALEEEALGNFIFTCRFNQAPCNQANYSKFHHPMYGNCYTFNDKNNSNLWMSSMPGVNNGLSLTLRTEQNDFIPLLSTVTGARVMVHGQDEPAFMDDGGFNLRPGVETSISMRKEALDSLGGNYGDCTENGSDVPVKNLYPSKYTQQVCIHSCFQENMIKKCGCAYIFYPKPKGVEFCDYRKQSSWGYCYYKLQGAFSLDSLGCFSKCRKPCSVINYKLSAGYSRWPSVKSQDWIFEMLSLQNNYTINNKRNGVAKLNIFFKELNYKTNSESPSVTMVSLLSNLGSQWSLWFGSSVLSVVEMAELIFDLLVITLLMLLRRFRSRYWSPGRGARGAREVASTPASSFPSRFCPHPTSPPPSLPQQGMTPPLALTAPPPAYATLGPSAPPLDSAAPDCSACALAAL
T1 sequence (P37090 1-638): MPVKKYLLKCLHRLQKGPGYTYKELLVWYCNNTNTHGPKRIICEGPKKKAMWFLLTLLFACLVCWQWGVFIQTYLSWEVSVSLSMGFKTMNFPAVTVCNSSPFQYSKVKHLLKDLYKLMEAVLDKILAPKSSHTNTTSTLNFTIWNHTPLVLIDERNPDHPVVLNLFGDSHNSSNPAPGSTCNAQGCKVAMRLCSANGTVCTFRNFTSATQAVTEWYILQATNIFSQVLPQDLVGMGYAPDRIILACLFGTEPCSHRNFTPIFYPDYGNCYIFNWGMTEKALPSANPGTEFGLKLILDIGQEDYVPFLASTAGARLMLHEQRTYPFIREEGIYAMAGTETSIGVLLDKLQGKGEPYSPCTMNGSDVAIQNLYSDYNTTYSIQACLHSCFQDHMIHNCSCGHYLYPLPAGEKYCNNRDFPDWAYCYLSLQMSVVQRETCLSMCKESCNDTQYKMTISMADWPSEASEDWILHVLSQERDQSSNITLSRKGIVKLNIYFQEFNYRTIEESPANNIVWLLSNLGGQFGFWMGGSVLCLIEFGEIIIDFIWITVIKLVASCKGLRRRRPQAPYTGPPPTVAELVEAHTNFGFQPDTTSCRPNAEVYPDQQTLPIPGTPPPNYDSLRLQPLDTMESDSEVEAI
T1 sequence (P37091 1-650): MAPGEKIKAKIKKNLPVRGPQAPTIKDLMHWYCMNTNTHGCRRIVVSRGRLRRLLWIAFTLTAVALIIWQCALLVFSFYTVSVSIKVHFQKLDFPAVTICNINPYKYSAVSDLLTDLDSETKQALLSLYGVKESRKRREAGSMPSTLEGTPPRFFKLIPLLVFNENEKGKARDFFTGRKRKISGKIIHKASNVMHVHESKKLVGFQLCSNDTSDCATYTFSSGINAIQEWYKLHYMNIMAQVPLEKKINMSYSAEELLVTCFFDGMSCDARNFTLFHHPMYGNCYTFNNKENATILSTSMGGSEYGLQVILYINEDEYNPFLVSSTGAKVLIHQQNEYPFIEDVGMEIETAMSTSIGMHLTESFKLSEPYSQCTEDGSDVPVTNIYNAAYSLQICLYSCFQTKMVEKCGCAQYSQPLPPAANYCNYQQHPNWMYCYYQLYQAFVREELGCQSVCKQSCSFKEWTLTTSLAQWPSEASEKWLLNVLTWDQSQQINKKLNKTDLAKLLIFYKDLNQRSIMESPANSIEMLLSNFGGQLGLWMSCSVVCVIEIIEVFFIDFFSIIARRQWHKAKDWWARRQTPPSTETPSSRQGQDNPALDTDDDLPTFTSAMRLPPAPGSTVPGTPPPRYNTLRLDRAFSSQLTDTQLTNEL
Experiment: Rat potency from renal electrolyte excretion during i.v. infusion
Type: in vivo
Conditions: read-out: potency for rat ENaC (EC50, inhibiting 50% of the potassium excretion), normal rats, free concentrations, estimated
Method: The potency of AZD5634 was also assessed in vivo in rats. Female Wistar rats were anesthetized by means of spontaneously breathing isoflurane (induction concentration of 5% followed by 2%). A catheter was positioned in the carotid artery for blood sampling and mean arterial blood pressure and heart rate were measured. […] The urinary bladder was catheterized for urine collection. The rats were left to stabilize for at least 30 min after surgery during constant basal infusions before any test compound or vehicle infusion was initiated. Urine was collected over 20-min periods; two at baseline (i.e., preexposure), followed by three 30 min exposures of increasing doses of test compound or vehicle, where urine was collected over the last 20 min for each dose. Additional urine was collected during the washout period (0–20, 20–40, and 40–60 min after cessation of the infusion protocol). Blood samples were collected 5 min before the end of each urine collection period for electrolyte evaluation (iSTAT analyzer, Abbott Laboratories Inc) and plasma concentration of drug (LC-MSMS). Urine production, electrolytes (ABL700, Radiometer Medical ApS, Brønshøj, Denmark, for urine), as well as concentration of test compound (LC-MSMS) were evaluated.
Rat electrolyte data were analyzed by means of repeated-measures ANCOVA (SAS v.9).

- EC50: 8.6 nM
Substance: AZD5634
